Results published in US6365759B1, “Intermediate compounds for preparing macrocylcic analogs” (Eisai Co., Ltd., priority 1998, dated 2002).
Where two headings read alike, the source gives them in different places.

What was measured:
[1] = system: DLD-1 human colon cancer cells; experiment: in vitro cell growth inhibition assay using DLD-1 cells; type: cell-based
[2] = system: U937 human histiocytic lymphoma cells; experiment: U937 Mitotic Block Reversibility Assay; type: cell-based; conditions: for reversibility of induced mitotic blocks: blocks sustained 10 hour after drug washout
[3] = in vitro cell growth inhibition, DLD-1 human colon cancer cells, read-out: DLD-1 mean IC50
[4] = Homo sapiens, DLD-1, read-out: DLD-1 mean IC50

## C=C1CC2CCC34CC5OC6C(OC7CCC(CC(=O)C[C@H]8C(CC9OC(CCC1O2)CC(C)C9=C)OC(CC(O)CO)C8OC)OC7C6O3)C5O4 (stereo partly drawn) [Compound B1793]
[1]; [3]
  IC50: 0.93 nM
[2]
  Reversibility Ratio: 14.7
[2]; after washout, 12 h pretreatment, U937 cells
  Complete Mitotic Block 10 hour: 44 nM
[2]; before washout, 12 h pretreatment, U937 cells
  Complete Mitotic Block 0 hour: 3 nM

## C=C1CC2CCC34CC5OC6C(OC7CCC(CC(=O)CC8C(CC9OC(CCC1O2)CC(C)C9=C)OC(CC(O)CO)C8OC)OC7C6O3)C5O4 (stereo not drawn) [Compound B1794]
[1]; [3]
  IC50: 12.2 nM

## C=C1CC2CCC34CC5OC6C(OC7CCC(CC(=O)CC8C(CC9OC(CCC1O2)CC(C)C9=C)OC(CC(O)CN=[N+]=[N-])C8OC)OC7C6O3)C5O4 (stereo not drawn) [Compound B1922]
[1]; [4]
  IC50: 0.53 nM
[2]
  Complete Mitotic Block 0 hour: 3 nM
  Complete Mitotic Block 10 hour: 30 nM
  Reversibility Ratio: 10.0

## C=C1CC2CCC34CC5OC6C(OC7CCC(CC(=O)CC8C(CC9OC(CCC1O2)CC(C)C9=C)OC(CC(O)CNC(=O)C(=O)c1ccccc1)C8OC)OC7C6O3)C5O4 (stereo not drawn) [Compound B1930]
[1]; read-out: DLD-1 mean IC50
  IC50: 0.87 nM

## C=C1CC2CCC34CC5OC6C(OC7CCC(CC(=O)CC8C(CC9OC(CCC1O2)CC(C)C9=C)OC(CC(=O)CO)C8OC)OC7C6O3)C5O4 (stereo not drawn) [Compound B1934]
[1]; [4]
  IC50: 1.05 nM
[2]
  Complete Mitotic Block 0 hour: 3 nM
  Complete Mitotic Block 10 hour: 30 nM
  Reversibility Ratio: 10.0

## C=C1CC2CCC34CC5OC6C(OC7CCC(CC(=O)CC8C(CC9OC(CCC1O2)CC(C)C9=C)OC(CC(O)CNC(=O)Cc1cccnc1)C8OC)OC7C6O3)C5O4 (stereo not drawn) [Compound B1940]
[1]; read-out: DLD-1 mean IC50
  IC50: 5.43 nM

## C=C1CC2CCC34CC5OC6C(OC7CCC(CC(=O)CC8C(CC9OC(CCC1O2)CC(C)C9=C)OC(CC(O)CNC(=O)Cc1ccccc1)C8OC)OC7C6O3)C5O4 (stereo not drawn) [Compound B1973]
[1]; read-out: DLD-1 mean IC50
  IC50: 1.15 nM

## C=C1CC2CCC34CC5OC6C(OC7CCC(CC(=O)CC8C(CC9OC(CCC1O2)CC(C)C9=C)OC(CC(O)COC(=O)Nc1ccccc1)C8OC)OC7C6O3)C5O4 (stereo not drawn) [Compound B1984]
[1]; read-out: DLD-1 mean IC50
  IC50: 1.01 nM

## C=C1CC2CCC34CC5OC6C(OC7CCC(CC(=O)CC8C(CC9OC(CCC1O2)CC(C)C9=C)OC(CC(O)CNC(=O)C(=O)c1c[nH]c2ccccc12)C8OC)OC7C6O3)C5O4 (stereo not drawn) [Compound B1987]
[1]; read-out: DLD-1 mean IC50
  IC50: 1.82 nM

## C=C1CC2CCC34CC5OC6C(OC7CCC(CC(=O)CC8C(CC9OC(CCC1O2)CC(C)C9=C)OC(CC(=O)CNC(=O)C(=O)c1ccccc1)C8OC)OC7C6O3)C5O4 (stereo not drawn) [Compound B1988]
[1]; [4]
  IC50: 2.67 nM

## C=C1CC2CCC34CC5OC6C(OC7CCC(CC(=O)CC8C(CC9OC(CCC1O2)CC(C)C9=C)OC(CC(O)COC(=O)Nc1ccc(Cl)cc1)C8OC)OC7C6O3)C5O4 (stereo not drawn) [Compound B1990]
[1]; read-out: DLD-1 mean IC50
  IC50: 1.3 nM

## C=C1CC2CCC34CC5OC6C(OC7CCC(CC(=O)CC8C(CC9OC(CCC1O2)CC(C)C9=C)OC(CC(O)CNC(=O)c1ccc(Cl)cc1)C8OC)OC7C6O3)C5O4 (stereo not drawn) [Compound B1991]
[1]; read-out: DLD-1 mean IC50
  IC50: 0.69 nM

## C=C1CC2CCC34CC5OC6C(OC7CCC(CC(=O)CC8C(CC9OC(CCC1O2)CC(C)C9=C)OC(CC(O)COC(=O)Nc1ccc(OC)cc1)C8OC)OC7C6O3)C5O4 (stereo not drawn) [Compound B1992]
[1]; read-out: DLD-1 mean IC50
  IC50: 0.86 nM

## C=C1CC2CCC34CC5OC6C(OC7CCC(CC(=O)CC8C(CC9OC(CCC1O2)CC(C)C9=C)OC(CC(O)CNC(=O)C(=O)c1cc(OC)c(OC)c(OC)c1)C8OC)OC7C6O3)C5O4 (stereo not drawn) [Compound B2003]
[1]; read-out: DLD-1 mean IC50
  IC50: 1.21 nM

## C=C1CC2CCC34CC5OC6C(OC7CCC(CC(=O)CC8C(CC9OC(CCC1O2)CC(C)C9=C)OC(CC(O)CNC(=O)c1cc(OC)c(OC)c(OC)c1)C8OC)OC7C6O3)C5O4 (stereo not drawn) [Compound B2004]
[1]; read-out: DLD-1 mean IC50
  IC50: 0.63 nM

## C=C1CC2CCC34CC5OC6C(OC7CCC(CC(=O)CC8C(CC9OC(CCC1O2)CC(C)C9=C)OC(CC(O)COCc1ccc(F)cc1)C8OC)OC7C6O3)C5O4 (stereo not drawn) [Compound B2014]
[1]; [4]
  IC50: 0.87 nM

## C=C1CC2CCC34CC5OC6C(OC7CCC(CC(=O)CC8C(CC9OC(CCC1O2)CC(C)C9=C)OC(CC(CO)OCc1ccc(F)cc1)C8OC)OC7C6O3)C5O4 (stereo not drawn) [Compound B2015]
[1]; [4]
  IC50: 2.78 nM

## C=CC(F)(F)C(O)CC1OC2CC3OC(CCC4OC(CCC56CC7OC8C(OC9CCC(CC(=O)CC2C1OC)OC9C8O5)C7O6)CC4=C)CC(C)C3=C (stereo not drawn) [Compound B2035]
[1]; [4]
  IC50: 0.76 nM

## C=C1C[C@@H]2CCC34CC5OC6C(OC7CCC(CC(=O)CC8C(CC9OC(CCC1O2)CC(C)C9=C)OC(CCO)C8OC)OC7C6O3)C5O4 (stereo partly drawn) [Compound B2037]
[1]; [4]
  IC50: 0.66 nM

## C=C1CC2CCC34CC5OC6C(OC7CCC(CC(=O)CC8C(CC9OC(CCC1O2)CC(C)C9=C)OC(CC(O)CC(O)CO)C8OC)OC7C6O3)C5O4 (stereo not drawn) [Compound B2086]
[1]; [4]
  IC50: 11.2 nM

## C=C1CC2CCC34CC5OC6C(OC7CCC(CC(=O)CC8C(CC9OC(CCC1O2)CC(C)C9=C)OC(C(O)CO)C8C)OC7C6O3)C5O4 (stereo not drawn) [Compound B2090]
[1]; [4]
  IC50: 0.52 nM

## C=C1CC2CCC34CC5OC6C(OC7CCC(CC(=O)CC8C(CC9OC(CCC1O2)CC(C)C9=C)OC(CC(O)CCO)C8OC)OC7C6O3)C5O4 (stereo not drawn) [Compound B2091]
[1]; [4]
  IC50: 1.36 nM
[2]
  Complete Mitotic Block 0 hour: 3 nM
  Complete Mitotic Block 10 hour: 30 nM
  Reversibility Ratio: 10.0

## C=C1CC2CCC34CC5OC6C(OC7CCC(CC(=O)CC8C(CC9OC(CCC1O2)CC(C)C9=C)OC(C(O)CN)C8C)OC7C6O3)C5O4 (stereo not drawn) [Compound B2136]
[1]; [4]
  IC50: 5.23 nM
[2]
  Complete Mitotic Block 0 hour: 3 nM
  Complete Mitotic Block 10 hour: 3 nM
  Reversibility Ratio: 1.0

## C=C1C[C@@H]2CCC34CC5OC6C(OC7CCC(CC(=O)CC8C(CC9OC(CCC1O2)CC(C)C9=C)OC(CC(O)COS(C)(=O)=O)C8OC)OC7C6O3)C5O4 (stereo partly drawn) [Compound B2294]
[1]; [4]
  IC50: 0.8 nM

## C=C1CC2CCC34CC5OC6C(OC7CCC(CC(=O)CC8C(CC9OC(CCC1O2)CC(C)C9=C)OC(CC(O)CN(C)C)C8OC)OC7C6O3)C5O4 (stereo not drawn) [Compound B2320]
[1]; read-out: DLD-1 mean IC50
  IC50: 1.2 nM
[2]
  Complete Mitotic Block 0 hour: 1 nM
  Complete Mitotic Block 10 hour: 10 nM
  Reversibility Ratio: 10.0

## C=C1CC2CCC34CC5OC6C(OC7CCC(CC(=O)CC8C(CC9OC(CCC1O2)CC(C)C9=C)OC(CC(O)CNC(C)C)C8OC)OC7C6O3)C5O4 (stereo not drawn) [Compound B2330]
[1]; read-out: DLD-1 mean IC50
  IC50: 4.4 nM
[2]
  Complete Mitotic Block 0 hour: 7 nM
  Complete Mitotic Block 10 hour: 7 nM
  Reversibility Ratio: 1.0

## C=C1C[C@@H]2CC[C@@]34C[C@H]5O[C@H]6[C@@H](O3)[C@H]3O[C@H](CC[C@@H]3O[C@@H]6[C@H]5O4)CC(=O)C[C@@H]3[C@@H](OC)[C@@H](C[C@H](O)CNC)O[C@H]3C[C@H]3O[C@@H](CC[C@@H]1O2)C[C@@H](C)C3=C [Compound B2336]
[1]; read-out: DLD-1 mean IC50
  IC50: 3.33 nM
[2]
  Complete Mitotic Block 0 hour: 10 nM
  Complete Mitotic Block 10 hour: 10 nM
  Reversibility Ratio: 1.0

## CC[C@]1(O)C[C@@H]2CN(CCc3c([nH]c4ccccc34)[C@@](C(=O)OC)(c3cc4c(cc3OC)N(C)[C@H]3[C@@](O)(C(=O)OC)[C@H](OC(C)=O)[C@]5(CC)C=CCN6CC[C@]43[C@@H]65)C2)C1 [Vinblastine, reference compound]
[2]; Table 2
  Reversibility ratio: 60
[2]; Table 2, U937 cells
  Drug concentration required for complete mitotic block, 0 hour (before washout): 10 nM
  Drug concentration required for complete mitotic block, 10 hour (after washout): 600 nM
[2]
  reversibility of induced mitotic blocks: highly reversible

## CC[C@]1(O)C[C@H]2CN(CCc3c([nH]c4ccccc34)[C@@](C(=O)OC)(c3cc4c(cc3OC)N(C=O)[C@H]3[C@@](O)(C(=O)OC)[C@H](OC(C)=O)[C@]5(CC)C=CCN6CC[C@]43[C@@H]65)C2)C1 [Vincristine, reference compound]
[2]; Table 2
  Reversibility ratio: 1
[2]; Table 2, U937 cells
  Drug concentration required for complete mitotic block, 0 hour (before washout): 10 nM
  Drug concentration required for complete mitotic block, 10 hour (after washout): 10 nM
[2]; Table 2, reversibility of mitotic block
  Interpretation: Irreversible
[2]
  reversibility of induced mitotic blocks: irreversible
